≈ marks a conversion by molar mass, not a printed value. Bounds are passed on as bounds.

For orientation: IC50 means the concentration at which inhibition is half-maximal.

The test system of this experiment is Trypanosoma brucei. Briefly: DNDI: Inhibition of Human African Trypanosomiasis, SBRI 427, in vitro. To be noted: Trypanosoma brucei, SBRI 427; read-out: IC50. Format: functional, organism-based.
Regarding `CCC(CC)N/C(=N\O)c1cccnc1Oc1ccccc1F`, the concentration for half-maximal inhibition (IC50) is 0.43 µg/mL (≈ 1.35 µM).

With `O/N=C(\NC1CCC1)c1ccnc(Oc2cc(Cl)ccc2Cl)c1`, the IC50 worked out at 0.6 µg/mL (≈ 1.7 µM).

For the compound `O/N=C(\NC1CCCCC1)c1ccnc(Oc2ccc(F)c(F)c2)c1`, the IC50 is greater than 5 µg/mL.

`Cc1ccc(/C(=N/O)NCCN2CCCC2)c(Oc2ccc(F)cc2)n1`: the half-inhibitory concentration (IC50) was 37.5 µg/mL (≈ 105 µM).

With `Cc1ccc(Oc2nc(C)ccc2/C(=N/O)NC2CCCC2)cc1`, the IC50 was 6.96 µg/mL (≈ 21.4 µM).

Consider `Cc1ccc(Oc2cc(/C(=N/O)N3CCCCCC3)ccn2)c(C)c1`, for which the IC50 was greater than 5 µg/mL.

Turning to `O/N=C(/c1ccnc(Oc2cccc3c2CCCC3)c1)N1CCSCC1`, the half-inhibitory concentration (IC50) is greater than 5 µg/mL.

As to `O/N=C(\NC1CCCCC1)c1ccc(Oc2ccc3ccccc3c2)nc1`, the IC50 is greater than 5 µg/mL.

Consider `O/N=C(\NC1CCCC1)c1ccc(Oc2c(F)c(F)cc(F)c2F)nc1`, for which the IC50 amounted to 3.8 µg/mL (≈ 10.3 µM).

With `CCc1ccc(Oc2ccc(/C(=N/O)NC3CCCC3)cn2)cc1`, the IC50 amounted to 40.8 µg/mL (≈ 126 µM).

Regarding `O/N=C(\NC1CCCC1)c1ccnc(Oc2ccc(Cl)cc2)c1`, the IC50 came to 5 µg/mL (≈ 15.1 µM).

On to `CCC(CC)N/C(=N\O)c1ccc(Oc2cc(C)cc(C)c2)nc1`, for which the IC50 worked out at 1.61 µg/mL (≈ 4.92 µM).

As for `CC(C)(C)CN/C(=N\O)c1ccnc(Oc2ccc(F)c(Cl)c2)c1`, the IC50 turned out to be 2.73 µg/mL (≈ 7.76 µM).

Consider `O/N=C(\NCc1cccnc1)c1ccc(Oc2ccc3oc4ccccc4c3c2)nc1`, for which the IC50 was found to be 3.79 µg/mL (≈ 9.23 µM).

As for `O/N=C(\NC1CCCC1)c1ccnc(Oc2cccc(F)c2)c1`, the IC50 was 2.27 µg/mL (≈ 7.2 µM).

With `O/N=C(\NCc1c(F)cccc1F)c1cccnc1Oc1ccc(F)cc1`, the concentration for half-maximal inhibition (IC50) amounted to 2.18 µg/mL (≈ 5.84 µM).

For `CCC(CC)N/C(=N\O)c1ccnc(Oc2ccc(OC)cc2)c1`, the IC50 amounted to 3.65 µg/mL (≈ 11.1 µM).

With `O/N=C(\NC1CCCC1)c1cccnc1Oc1ccccc1F`, the 50% inhibitory concentration (IC50) was determined as 18.2 µg/mL (≈ 57.8 µM).

Consider `O/N=C(\NC1CCCCC1)c1ccnc(Oc2ccc(Cl)cc2)c1`, for which the half-maximal inhibitory concentration (IC50) was found to be 2.4 µg/mL (≈ 6.94 µM).

On to `O/N=C(\NC1CCCCC1)c1ccc(Oc2c(F)c(F)cc(F)c2F)nc1`, for which the 50% inhibitory concentration (IC50) was 4.06 µg/mL (≈ 10.6 µM).

As to `O/N=C(\NC1CCC1)c1ccc(Oc2ccc3oc4ccccc4c3c2)nc1`, the IC50 stood at 1.06 µg/mL (≈ 2.84 µM).

Turning to `CCC(C)(C)N/C(=N\O)c1ccc(Oc2cccc3ccccc23)nc1`, the IC50 was 0.86 µg/mL (≈ 2.46 µM).

On to `CC(C)(C)CN/C(=N\O)c1ccnc(Oc2cccc(F)c2)c1`, for which the IC50 turned out to be 2.19 µg/mL (≈ 6.9 µM).

Consider `Cc1cc(C)cc(CN/C(=N\O)c2ccc(C)nc2OCc2ccccn2)c1`, for which the half-maximal inhibitory concentration (IC50) stood at 2.79 µg/mL (≈ 7.41 µM).

Regarding `C=CCc1ccc(Oc2cc(/C(=N/O)NCc3ccc(OC)cc3)ccn2)c(OC)c1`, the concentration for half-maximal inhibition (IC50) was greater than 5 µg/mL.

Take `O/N=C(\NC1CCc2ccccc21)c1cccnc1Oc1ccc2ccccc2c1` (stereo not drawn): the half-maximal inhibitory concentration (IC50) came out at 1.47 µg/mL (≈ 3.72 µM).

`O/N=C(\NC1CCCC1)c1ccc(Oc2cccc3c2CCCC3)nc1`: the concentration for half-maximal inhibition (IC50) worked out at 0.31 µg/mL (≈ 0.882 µM).

Consider `CC(C)c1ccc(Oc2ncccc2/C(=N/O)NCc2c(F)cccc2F)cc1`, for which the half-inhibitory concentration (IC50) was greater than 5 µg/mL.

As for `CCC(CC)N/C(=N\O)c1cccnc1Oc1ccccc1SC`, the 50% inhibitory concentration (IC50) worked out at 0.41 µg/mL (≈ 1.19 µM).

In the case of `O/N=C(\NCC1CCCCC1)c1ccnc(Oc2ccc(Cl)cc2)c1`, the concentration for half-maximal inhibition (IC50) was 3.98 µg/mL (≈ 11.1 µM).

As for `CCc1ccc(Oc2ccc(/C(=N/O)NCC3CC3)cn2)cc1`, the half-maximal inhibitory concentration (IC50) amounted to 0.37 µg/mL (≈ 1.19 µM).

Turning to `Cc1cc(Oc2ccc(/C(=N/O)N3CCCC3C)cn2)cc(C(C)C)c1` (stereo not drawn), the IC50 is greater than 5 µg/mL.

`Cc1ccc(/C(=N/O)NC2CCCC2)c(Oc2ccc3oc4ccccc4c3c2)n1`: the IC50 was determined as 0.67 µg/mL (≈ 1.67 µM).

Take `CC(C)c1cccc(Oc2cc(/C(=N/O)N3CCN(c4ccccc4)CC3)ccn2)c1`: the IC50 was determined as 2.91 µg/mL (≈ 6.99 µM).

Consider `COCC(C)N/C(=N\O)c1ccc(Oc2ccc3ccccc3c2)nc1` (stereo not drawn), for which the half-inhibitory concentration (IC50) was greater than 5 µg/mL.

Regarding `Cc1ccc2cccc(Oc3cc(/C(=N/O)NC4CCC(C)CC4)ccn3)c2n1` (stereo not drawn), the IC50 is 4.86 µg/mL (≈ 12.4 µM).

Regarding `O/N=C(\NC1CC1)c1cccnc1Oc1ccccc1F`, the IC50 was found to be 4.25 µg/mL (≈ 14.8 µM).

For the compound `O/N=C(\NCC1CC1)c1ccc(Oc2cccc3c2CCCC3)nc1`, the concentration for half-maximal inhibition (IC50) was found to be 0.53 µg/mL (≈ 1.57 µM).

On to `COc1ccc(Oc2cc(/C(=N/O)NCC(C)C)ccn2)cc1`, for which the half-maximal inhibitory concentration (IC50) is greater than 5 µg/mL.

Take `CCC(CC)N/C(=N\O)c1cccnc1Oc1ccccc1OC`: the IC50 stood at 0.59 µg/mL (≈ 1.79 µM).

For the compound `O/N=C(\NC1CCC1)c1ccc(Oc2ccc3ccccc3c2)nc1`, the IC50 was greater than 5 µg/mL.

Turning to `Cc1cc(C)cc(CN/C(=N\O)c2cccnc2OCc2ccccc2F)c1`, the IC50 was found to be 1.96 µg/mL (≈ 5.17 µM).

Take `COc1ccc(Oc2cc(/C(=N/O)NCC(C)(C)C)ccn2)cc1`: the IC50 came to 4.8 µg/mL (≈ 14.6 µM).

For the compound `CC1CCC(N/C(=N\O)c2ccnc(Oc3cccc4cccnc34)c2)CC1` (stereo not drawn), the IC50 was greater than 5 µg/mL.

For `COCC(C)N/C(=N\O)c1ccnc(Oc2ccc(SC)cc2)c1` (stereo not drawn), the half-inhibitory concentration (IC50) came out at 0.45 µg/mL (≈ 1.3 µM).

On to `Cc1cc(C)cc(Oc2ccc(/C(=N/O)NC3CCC(C)CC3)cn2)c1` (stereo not drawn), for which the IC50 amounted to 2.93 µg/mL (≈ 8.29 µM).

In the case of `CN(/C(=N\O)c1ccnc(Oc2ccc(F)c(Cl)c2)c1)C1CCCCC1`, the half-inhibitory concentration (IC50) is greater than 5 µg/mL.

Turning to `Cc1ccc(Oc2ncccc2/C(=N/O)NCc2c(F)cccc2F)cc1`, the IC50 worked out at 1.75 µg/mL (≈ 4.74 µM).

Take `O/N=C(\NC1CCCC1)c1ccnc(Oc2cc(Cl)ccc2Cl)c1`: the 50% inhibitory concentration (IC50) came out at 10.8 µg/mL (≈ 29.6 µM).

Take `O/N=C(\NC1CC1)c1ccc(Oc2ccc3oc4ccccc4c3c2)nc1`: the IC50 stood at 36.6 µg/mL (≈ 102 µM).

`CCC(CC)N/C(=N\O)c1ccc(Oc2cccc3c2CCCC3)nc1`: the half-maximal inhibitory concentration (IC50) worked out at 1.26 µg/mL (≈ 3.56 µM).

On to `O/N=C(\NC1CCC1)c1ccc(Oc2c(F)c(F)cc(F)c2F)nc1`, for which the half-inhibitory concentration (IC50) came to 2.58 µg/mL (≈ 7.26 µM).

For the compound `O/N=C(\NC1CCCCC1)c1ccnc(Oc2ccc(F)c(Cl)c2)c1`, the concentration for half-maximal inhibition (IC50) is 3.79 µg/mL (≈ 10.4 µM).

As for `COc1ccc(Oc2cc(/C(=N/O)NC3CCCCC3)ccn2)cc1`, the half-maximal inhibitory concentration (IC50) turned out to be 3.73 µg/mL (≈ 10.9 µM).

Turning to `COc1ccccc1Oc1ncccc1/C(=N/O)NCC1CC1`, the IC50 stood at 0.35 µg/mL (≈ 1.12 µM).

`CSc1ccccc1Oc1ncccc1/C(=N/O)NC1CCCC1`: the IC50 was determined as 2.99 µg/mL (≈ 8.71 µM).

Regarding `CC1CCc2ccccc2N1/C(=N\O)c1cccnc1Oc1ccc(-n2cncn2)cc1` (stereo not drawn), the IC50 came to 0.73 µg/mL (≈ 1.71 µM).

Turning to `O/N=C(\NCC1CCCCC1)c1ccnc(Oc2cccc3c2CCCC3)c1`, the IC50 stood at 5 µg/mL (≈ 13.2 µM).

Take `O/N=C(\NC1CCCC1)c1ccnc(Oc2ccc(F)c(Cl)c2)c1`: the concentration for half-maximal inhibition (IC50) was determined as 2.2 µg/mL (≈ 6.29 µM).

`Cc1ccc(Oc2ccc(/C(=N/O)NC3CCCC3)cn2)c(C)c1`: the IC50 amounted to 21.8 µg/mL (≈ 66.9 µM).

On to `Cc1ccc(/C(=N/O)NC2CCC2)c(Oc2ccc3oc4ccccc4c3c2)n1`, for which the half-inhibitory concentration (IC50) worked out at 0.39 µg/mL (≈ 1.01 µM).

On to `CSc1ccc(Oc2nc(C)ccc2/C(=N/O)NC2CCCC2)cc1C`, for which the IC50 turned out to be 0.96 µg/mL (≈ 2.58 µM).

`COCC(C)N/C(=N\O)c1ccnc(Oc2ccc(Cl)cc2)c1` (stereo not drawn): the half-inhibitory concentration (IC50) came out at 0.36 µg/mL (≈ 1.07 µM).

For the compound `CCC(CC)N/C(=N\O)c1cccnc1Oc1ccc(F)cc1`, the IC50 amounted to 1.32 µg/mL (≈ 4.16 µM).

Regarding `COCCN/C(=N\O)c1ccc(C)nc1Oc1ccc(SC)c(C)c1`, the IC50 was greater than 5 µg/mL.

Turning to `COc1ccc(Oc2cc(/C(=N/O)NC3CCC3)ccn2)cc1`, the 50% inhibitory concentration (IC50) worked out at 4.78 µg/mL (≈ 15.3 µM).

Turning to `CCC(C)(C)N/C(=N\O)c1ccc(Oc2ccc3oc4ccccc4c3c2)nc1`, the 50% inhibitory concentration (IC50) turned out to be 1.6 µg/mL (≈ 4.11 µM).

Turning to `CCC(C)(C)N/C(=N\O)c1ccc(Oc2cc(C)cc(C)c2)nc1`, the IC50 came out at 2.36 µg/mL (≈ 7.21 µM).

With `O/N=C(\NCC1CC1)c1cccnc1Oc1ccc(F)cc1`, the IC50 worked out at 1.23 µg/mL (≈ 4.08 µM).

Take `Cc1ccc(/C(=N/O)NC2CCCCC2)c(Oc2ccc3ccccc3c2)n1`: the IC50 was 0.37 µg/mL (≈ 0.985 µM).

`Cc1cc(C)cc(Oc2nc(C)ccc2/C(=N/O)N2c3ccccc3CCC2C)c1` (stereo not drawn): the 50% inhibitory concentration (IC50) turned out to be 1.6 µg/mL (≈ 3.98 µM).

As for `CC1CCCN1/C(=N\O)c1ccc(Oc2ccc3ccccc3c2)nc1` (stereo not drawn), the half-maximal inhibitory concentration (IC50) was 2.32 µg/mL (≈ 6.68 µM).

Consider `O/N=C(\NC1CCCC1)c1ccnc(Oc2ccc(F)c(F)c2)c1`, for which the IC50 is 2.94 µg/mL (≈ 8.82 µM).

The values above are taken from ChEMBL document CHEMBL1857833, “Screening and optimization of specific chemical series against human African Trypanosomiasis (HAT)”.
